According to patent US20230158161A1, “DRUG DELIVERY SYSTEMS COMPRISING AN INTRAOCULAR PRESSURE LOWERING AGENT, A NEUROTROPHIC AGENT, A C-TYPE NATRIURETIC PEPTIDE, A NATRIURETIC PEPTIDE RECEPTOR-B, AN APOPTOSIS SIGNALING FRAGMENT INHIBITOR OR A FAS-LIGAND INHIBITOR FOR TREATING GLAUCOMA OR OCULAR HYPERTENSION” (Cella Therapeutics, LLC, priority 2020, published 2023):

Test system: African Green monkeys
Assay: IOP after intravitreal injection in African Green monkeys, PBS in the fellow eye as control
Assay type: in vivo, African Green monkey
Procedure: Eight African Green monkeys were screened to identify 4 animals with high-normal IOP. Animals were anesthetized with ketamine 10 mg/kg and Xylazine 0.5 mg/kg. Bimatoprost acid 100 ng in 50 μl was injected intravitreally in one eye through a 30-gauge syringe using a shelved technique, and 50 μl of phosphate buffered saline (PBS) was injected into the fellow eye as a concurrent control on days 0, 1, 2 at 8:30 pm. The bimatoprost acid dose was escalated to 200 ng in 100 μl, with the same volume of PBS given to the fellow eye, on days 3 (8:30 pm) and 4 (5:30 pm). IOP was measured with a Tonovet tonometer at 8:30 am, 11:30 am and 8:30 pm on day 1; 8:30 am, 11:30 am and 5:30 pm on day 4; and at 8:30 am on days 2, 3 and 5. The person measuring the IOP was masked to treatment assignment. Slit lamp exams were performed on day 0, 1 and 5. OCTs were performed at baseline and day 5.

## O=C(O)CCC/C=C\C[C@@H]1[C@@H](/C=C/[C@@H](O)CCc2ccccc2)[C@H](O)C[C@@H]1O [bimatoprost acid]
100 ng intravitreal, one of four animals (B392) responded, at 1 timepoint
  reduction in IOP compared with the fellow eye: 30%
200 ng intravitreal, animal B392, day 5
  IOP reduced in the treated eye compared with the fellow eye receiving PBS: 52%
200 ng intravitreal, three of four animals responded, at 1 or more timepoints
  reduction in IOP compared with the fellow eye: 30%
Animal B300, 100 ng and 200 ng intravitreal
  IOP response: did not respond to either dose
intravitreal, dose-response between the 100 ng and 200 ng doses
  IOP lowering effect, overall conclusion: clear IOP lowering-effect
